Reference: patent US20250313546A1, “NUCLEIC ACID BINDERS” (UNIVERSITY OF STRATHCLYDE, priority 2022, published 2025)
In brackets after ≈: the same amount, converted by molar mass. Like-named read-outs stand apart in the source and are kept apart here.

Key:
Candida parapsilosis = assay: Expanded set of yeasts, MIC broth microdilution (CLSI); assay type: cell-based; settings: MIC at 50% inhibition; for MIC50: Lodderomyces parapsilosis
Aspergillus fumigatus = assay: Expanded set of filamentous fungi, MIC broth microdilution (CLSI); assay type: cell-based
[1] = tested on: Staphylococcus aureus (ATCC 43300); assay: Antibacterial MIC, broth microdilution (CLSI); assay type: cell-based
[2] = tested on: Escherichia coli (ATCC 25922); assay: Antibacterial MIC, broth microdilution (CLSI); assay type: cell-based; settings: Escherichia coli, ATCC25922; read-out: MIC80 E. coli
Paecilomyces variotii = assay: Expanded set of filamentous fungi, MIC broth microdilution (CLSI); assay type: cell-based; settings: isolate MYA-3630, MIC at 50% inhibition
Fusarium solani = assay: as above; assay type: cell-based; settings: MIC at 50% inhibition
C. guilliiermondii = assay: Expanded set of yeasts, MIC broth microdilution (CLSI); assay type: cell-based; settings: MIC at 50% inhibition
Rhizopus arrhizus = assay: Expanded set of filamentous fungi, MIC broth microdilution (CLSI); assay type: cell-based
[3] = tested on: Scedosporium prolificans (F2746); settings: Lomentospora prolificans, read-out: MIC99 Scedosporium prolificans
Method: The Minimum Inhibitory Concentration (MIC, at 99% inhibition) of the compounds was determined using the broth microdilution method as recommended by EUCAST (EUCAST Definitive Document E.DEF 9.3.2, Method for the determination of broth dilution minimum inhibitory concentrations of antifungal agents for conidia forming moulds and EUCAST Definitive Document E.DEF 7.3.2 Method for the determination of broth dilution minimum inhibitory concentrations of antifungal agents for yeasts).

C. albicans = assay: Expanded set of yeasts, MIC broth microdilution (CLSI); assay type: cell-based; settings: MIC at 50% inhibition; for MIC50: Candida albicans
Scedosporium spp. = assay: Expanded set of filamentous fungi, MIC broth microdilution (CLSI); assay type: cell-based
[4] = tested on: Genomic double stranded DNA (salmon); assay: Fluorescence intercalator displacement (FID) assay, SYBR-safe probe; settings: 20 μM compound, 30° C., lower % = stronger binding
Procedure, shortened: (§1)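 Compound at 20 μM mixed with 3.76 ng/mL polyAU dsRNA or salmon genomic dsDNA and 12500-fold diluted SybrSafe in 1 mM phosphate buffer pH 7.4, then heated to 30 °C and fluorescence read. Reduction is expressed as normalised %, with nucleic acid plus probe as maximum and probe alone as minimum.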

[5] = tested on: PolyAU double stranded RNA; assay: as above; settings: 20 μM compound, 30° C., lower % = stronger binding
Procedure, shortened: as §1

[6] = tested on: Rhizopus arrhizus (NEQAS12.35321); settings: read-out: MIC99 Rhizopus arrhizus
[7] = tested on: A. fumigatus A1160 (MFIG001); settings: Aspergillus fumigatus, read-out: MIC99 A. fumigatus A1160
Lomentospora prolificans = assay: Expanded set of filamentous fungi, MIC broth microdilution (CLSI); assay type: cell-based; settings: isolate S2, MIC at 50% inhibition
[8] = tested on: Candida glabrata (ACPF3309); settings: Nakaseomyces glabratus, read-out: MIC99 Candida glabrata
[9] = tested on: Enterococcus faecalis (ATCC 51299); assay: Antibacterial MIC, broth microdilution (CLSI); assay type: cell-based; settings: Enterococcus faecalis, ATCC51299; read-out: MIC80 E. faecalis
Fusarium oxysporum = assay: Expanded set of filamentous fungi, MIC broth microdilution (CLSI); assay type: cell-based; settings: MIC at 50% inhibition
Blastomyces dermatitidis = assay: as above; assay type: cell-based
C. neoformans (F10025) = settings: Cryptococcus neoformans, read-out: MIC99 C. neoformans

Question: With `C/N=C(/CCNC(=O)c1cc(NC(=O)c2cc(NC(=O)c3ccc(/C=C/c4cnc5ccccc5c4)cc3)cn2C)cn1C)NC` [Ia10, 1-methyl-4-(1-methyl-4-(4-((E)-2-(quinolin-3-yl)vinyl)benzamido)-1H-pyrrole-2-carboxamido)-N—((Z)-3-(methylamino)-3-(methylimino)propyl)-1H-pyrrole-2-carboxamide] as the molecule, how does the MIC50 (Candida parapsilosis; ATCC22019, isolate ATCC 22019, read-out: MIC50 Candida parapsilosis) read?
Answer: 1 to 8 µg/mL (≈ 1.62 to 13 µM)

Question: And the MIC50 (Candida parapsilosis; isolate CP1, read-out: MIC50 C. parapsilosis)?
Answer: 1 to 8 µg/mL (≈ 1.62 to 13 µM)

Question: And the “MIC50 C. parapsilosis” value (Candida parapsilosis; isolate CP2)?
Answer: ** (** means 1 μg/mL < MIC50 <= 8 μg/mL)

Question: What about the “MIC50 C. parapsilosis” value (Candida parapsilosis; isolate CP3) of the same molecule?
Answer: ** (** means 1 μg/mL < MIC50 <= 8 μg/mL)

Question: What about the MIC50 (Aspergillus fumigatus; isolate AF293, MIC at 50% inhibition) of the same molecule?
Answer: ≤ 1 µg/mL

Question: What about the MIC50 (Aspergillus fumigatus; isolate DI15-106, MIC at 50% inhibition) of the same molecule?
Answer: ≤ 1 µg/mL

Question: What about the MIC50 (Aspergillus fumigatus; isolate DI15-116, MIC at 50% inhibition) of the same molecule?
Answer: ≤ 1 µg/mL

Question: And the MIC50 (Aspergillus fumigatus; isolate DI19-187, MIC at 50% inhibition)?
Answer: ≤ 1 µg/mL

Question: What about the MIC50 (Aspergillus fumigatus; isolate DI19-230, MIC at 50% inhibition) of the same molecule?
Answer: ≤ 1 µg/mL

Question: And the MIC50 (Aspergillus fumigatus; isolate DI19-231, MIC at 50% inhibition)?
Answer: 1 to 8 µg/mL (≈ 1.62 to 13 µM)

Question: And the MIC50 (Aspergillus fumigatus; isolate DI19-232, MIC at 50% inhibition)?
Answer: ≤ 1 µg/mL

Question: And the MIC50 (Aspergillus fumigatus; isolate DI19-233, MIC at 50% inhibition)?
Answer: ≤ 1 µg/mL

Question: What about the MIC50 (Aspergillus fumigatus; isolate DI19-234, MIC at 50% inhibition) of the same molecule?
Answer: ≤ 1 µg/mL

Question: And the MIC50 (Aspergillus fumigatus; isolate DI19-236, MIC at 50% inhibition)?
Answer: ≤ 1 µg/mL

Question: What about the MIC50 (Aspergillus fumigatus; isolate DI19-237, MIC at 50% inhibition) of the same molecule?
Answer: ≤ 1 µg/mL

Question: What about the MIC50 (Aspergillus fumigatus; isolate DI20-95, MIC at 50% inhibition) of the same molecule?
Answer: ≤ 1 µg/mL

Question: What about the MIC50 (Aspergillus fumigatus; isolate DI20-103, MIC at 50% inhibition) of the same molecule?
Answer: ≤ 1 µg/mL

Question: And the “S. aureus Selectivity Indices, Group” value ([1]; SI, IC50 (μM)/MIC80 (μM), HEK293 cytotoxicity, Alkyl Amidines and NH Pyrroles)?
Answer: B (Group B: 3 < SI <= 5)

Question: And the MIC80 ([1]; Staphylococcus aureus, ATCC43300, read-out: MIC80 S. aureus)?
Answer: < 5 µM

Question: What about the MIC80 [2] of the same molecule?
Answer: > 100 µM

Question: What about the MIC50 (Paecilomyces variotii) of the same molecule?
Answer: 1 to 8 µg/mL (≈ 1.62 to 13 µM)

Question: What about the MIC50 (Fusarium solani; Fusarium solani, isolate F4) of the same molecule?
Answer: ≤ 1 µg/mL

Question: And the “MIC50 Fusarium solani” value (Fusarium solani; isolate DI19-284)?
Answer: *** (*** means MIC50 <= 1 μg/mL)

Question: And the MIC50 (C. guilliiermondii; isolate Cgui1)?
Answer: 1 to 8 µg/mL (≈ 1.62 to 13 µM)

Question: And the “MIC50 C. guilliiermondii” value (C. guilliiermondii; isolate Cgui2)?
Answer: ** (** means 1 μg/mL < MIC50 <= 8 μg/mL)

Question: And the “MIC50 C. guilliiermondii” value (C. guilliiermondii; isolate Cgui3)?
Answer: ** (** means 1 μg/mL < MIC50 <= 8 μg/mL)

Question: And the MIC50 (Rhizopus arrhizus; isolate 99-880, MIC at 50% inhibition)?
Answer: 1 to 8 µg/mL (≈ 1.62 to 13 µM)

Question: What about the MIC50 (Rhizopus arrhizus; isolate 99-892, MIC at 50% inhibition) of the same molecule?
Answer: 1 to 8 µg/mL (≈ 1.62 to 13 µM)

Question: What about the MIC50 (Rhizopus arrhizus; isolate RA3, MIC at 50% inhibition) of the same molecule?
Answer: 1 to 8 µg/mL (≈ 1.62 to 13 µM)

Question: And the MIC99 [3]?
Answer: < 5 µg/mL

Question: And the MIC50 (C. albicans; isolate CA3)?
Answer: 1 to 8 µg/mL (≈ 1.62 to 13 µM)

Question: And the MIC50 (C. albicans; isolate SC5314)?
Answer: 1 to 8 µg/mL (≈ 1.62 to 13 µM)

Question: What about the “MIC50 C. albicans” value (C. albicans; isolate CA90028) of the same molecule?
Answer: ** (** means 1 μg/mL < MIC50 <= 8 μg/mL)

Question: And the MIC50 (Scedosporium spp.; isolate S1, MIC at 50% inhibition)?
Answer: ≤ 1 µg/mL

Question: And the MIC50 (Scedosporium spp.; isolate S3, MIC at 50% inhibition)?
Answer: ≤ 1 µg/mL

Question: What about the “% Normalised Fluorescence with gDNA” value [4] of the same molecule?
Answer: 8%

Question: And the “% Normalised Fluorescence with polyAU RNA” value [5]?
Answer: 17%

Question: What about the MIC99 [6] of the same molecule?
Answer: 5 to 25 µg/mL (≈ 8.11 to 40.5 µM)

Question: What about the MIC99 [7] of the same molecule?
Answer: < 5 µg/mL

Question: And the MIC50 (Lomentospora prolificans)?
Answer: ≤ 1 µg/mL

Question: What about the MIC99 [8] of the same molecule?
Answer: < 5 µg/mL

Question: And the MIC80 [9]?
Answer: < 5 µM

Question: And the MIC50 (Fusarium oxysporum; Fusarium oxysporum, isolate F2)?
Answer: ≤ 1 µg/mL

Question: What about the “MIC50 Fusarium oxysporum” value (Fusarium oxysporum; isolate F3) of the same molecule?
Answer: *** (*** means MIC50 <= 1 μg/mL)

Question: What about the MIC50 (Blastomyces dermatitidis; isolate BD1, MIC at 50% inhibition) of the same molecule?
Answer: 1 to 8 µg/mL (≈ 1.62 to 13 µM)

Question: What about the MIC50 (Blastomyces dermatitidis; isolate BD2, MIC at 50% inhibition) of the same molecule?
Answer: 1 to 8 µg/mL (≈ 1.62 to 13 µM)

Question: What about the MIC50 (Blastomyces dermatitidis; isolate BD3, MIC at 50% inhibition) of the same molecule?
Answer: 8 to 32 µg/mL (≈ 13 to 51.9 µM)

Question: And the MIC99 (C. neoformans (F10025))?
Answer: < 5 µg/mL
